Reference: the NIST ThermoML archive (doi:10.1021/acs.jced.8b00213)

Key:
[1] = refractive index (Na D-line) (dimensionless); xn = mol fraction of the nth substance listed; settings: 100 kPa, Liquid, Standard Abbe refractometry, x1 = 0.25
[2] = xn = mol fraction of the nth substance listed; settings: 100 kPa, Liquid, x1 = 0.25; for electrical conductivity: Alternating current cell with electrodes; for viscosity: Falling or rolling sphere viscometry; for speed of sound: Single path-length method; for mass density: Vibrating tube method

CCCC[N+](CCCC)(CCCC)Cc1ccccc1.[Cl-] [benzyltributylammonium chloride] + OCCOCCO
Settings | electrical conductivity, [2] [S/m] | mass density, [2] [kg/m3] | refractive index, [1] | speed of sound, [2] [m/s] | viscosity, [2] [mPa·s]
283.15 K | 0.019 | 1063.94 | 1.4957 | 1706.8 | 961.86
288.15 K | 0.025 | 1060.76 | 1.4945 | 1689.5 | 644.25
293.15 K | 0.032 | 1057.65 | 1.4929 | 1673.2 | 433.54
298.15 K | 0.04 | 1054.57 | 1.4909 | 1658.1 | 310.37
303.15 K | 0.052 | 1051.5 | 1.4893 | 1643.5 | 224.9
308.15 K | 0.066 | 1048.41 | 1.4878 | 1629.5 | 168.37
313.15 K | 0.081 | 1045.31 | 1.486 | 1615.6 | 125.21
318.15 K | 0.099 | 1042.22 | 1.4849 | 1602 | 96.78
323.15 K | 0.115 | 1039.12 | 1.4836 | 1588.6 | 76.23
328.15 K | 0.13 | 1036.03 | 1.4815 | 1575.3 | 62.63
333.15 K | 0.154 | 1032.94 | 1.4804 | 1562.1 | 50.43
338.15 K | 0.178 | 1029.85 | 1.4786 | 1549.2 | 40.68
343.15 K | 0.207 | 1026.78 | 1.4776 | 1536.7 | 32.76

CCCC[N+](CCCC)(CCCC)Cc1ccccc1.[Cl-] [benzyltributylammonium chloride] + OCCOCCOCCO
Settings | electrical conductivity, [2] [S/m] | mass density, [2] [kg/m3] | refractive index, [1] | speed of sound, [2] [m/s] | viscosity, [2] [mPa·s]
283.15 K | 0.013 | 1077.97 | 1.4936 | 1710.1 | 738.7
288.15 K | 0.017 | 1074.64 | 1.4921 | 1692.4 | 506
293.15 K | 0.021 | 1071.36 | 1.4906 | 1675.8 | 356.9
298.15 K | 0.027 | 1068.09 | 1.4889 | 1659.8 | 256.5
303.15 K | 0.035 | 1064.81 | 1.4874 | 1644.2 | 188.5
308.15 K | 0.043 | 1061.53 | 1.4857 | 1629.2 | 142.4
313.15 K | 0.054 | 1058.25 | 1.4842 | 1614.3 | 109.1
318.15 K | 0.067 | 1054.97 | 1.4827 | 1599.8 | 85.2
323.15 K | 0.082 | 1051.7 | 1.4811 | 1585.4 | 67.7
328.15 K | 0.098 | 1048.43 | 1.4795 | 1571.2 | 54.4
333.15 K | 0.114 | 1045.18 | 1.4779 | 1557.1 | 43.3
338.15 K | 0.145 | 1041.92 | 1.4764 | 1543.3 | 34.9
343.15 K | 0.174 | 1038.69 | 1.4748 | 1530 | 28.3

C[N+](C)(C)Cc1ccccc1.[Cl-] [trimethylbenzylammonium chloride] + OCC(O)CO
Settings | electrical conductivity, [2] [S/m] | mass density, [2] [kg/m3] | refractive index, [1] | speed of sound, [2] [m/s] | viscosity, [2] [mPa·s]
283.15 K | 0.012 | 1190.87 | 1.5126 | 1992.6 | –
288.15 K | 0.019 | 1187.92 | 1.5114 | 1970.8 | 1874.9
293.15 K | 0.027 | 1184.97 | 1.5102 | 1953 | 1170.9
298.15 K | 0.039 | 1182.02 | 1.5089 | 1937.6 | 753.5
303.15 K | 0.055 | 1178.99 | 1.5078 | 1923.4 | 501.5
308.15 K | 0.077 | 1176.07 | 1.5064 | 1910.1 | 342.7
313.15 K | 0.104 | 1173.14 | 1.5052 | 1897.2 | 238.3
318.15 K | 0.138 | 1170.19 | 1.5039 | 1884.6 | 171.8
323.15 K | 0.181 | 1167.23 | 1.5027 | 1872.3 | 126.7
328.15 K | 0.231 | 1164.25 | 1.5014 | 1860 | 95.4
333.15 K | 0.283 | 1161.27 | 1.5002 | 1847.9 | 73
338.15 K | 0.34 | 1158.29 | 1.4989 | 1835.8 | 58.2
343.15 K | 0.413 | 1155.33 | 1.4977 | 1824.2 | 46.3
